Target: T1, JAK3 (Homo sapiens, UniProt P52333)
T1 construct: purchased Thermo Fisher Scientific (Life Technologies) SelectScreen
Experiment: SelectScreen Z'LYTE
Assay type: biochemical
How it was run: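 SelectScreen broad panel; activity (Z'LYTE, Adapta) plus binding formats. ATP: Km app for CSF1R Z'LYTE; 10 for CAMK1 Adapta. Readout = % per kinase.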

T1 sequence (P52333 whole entry): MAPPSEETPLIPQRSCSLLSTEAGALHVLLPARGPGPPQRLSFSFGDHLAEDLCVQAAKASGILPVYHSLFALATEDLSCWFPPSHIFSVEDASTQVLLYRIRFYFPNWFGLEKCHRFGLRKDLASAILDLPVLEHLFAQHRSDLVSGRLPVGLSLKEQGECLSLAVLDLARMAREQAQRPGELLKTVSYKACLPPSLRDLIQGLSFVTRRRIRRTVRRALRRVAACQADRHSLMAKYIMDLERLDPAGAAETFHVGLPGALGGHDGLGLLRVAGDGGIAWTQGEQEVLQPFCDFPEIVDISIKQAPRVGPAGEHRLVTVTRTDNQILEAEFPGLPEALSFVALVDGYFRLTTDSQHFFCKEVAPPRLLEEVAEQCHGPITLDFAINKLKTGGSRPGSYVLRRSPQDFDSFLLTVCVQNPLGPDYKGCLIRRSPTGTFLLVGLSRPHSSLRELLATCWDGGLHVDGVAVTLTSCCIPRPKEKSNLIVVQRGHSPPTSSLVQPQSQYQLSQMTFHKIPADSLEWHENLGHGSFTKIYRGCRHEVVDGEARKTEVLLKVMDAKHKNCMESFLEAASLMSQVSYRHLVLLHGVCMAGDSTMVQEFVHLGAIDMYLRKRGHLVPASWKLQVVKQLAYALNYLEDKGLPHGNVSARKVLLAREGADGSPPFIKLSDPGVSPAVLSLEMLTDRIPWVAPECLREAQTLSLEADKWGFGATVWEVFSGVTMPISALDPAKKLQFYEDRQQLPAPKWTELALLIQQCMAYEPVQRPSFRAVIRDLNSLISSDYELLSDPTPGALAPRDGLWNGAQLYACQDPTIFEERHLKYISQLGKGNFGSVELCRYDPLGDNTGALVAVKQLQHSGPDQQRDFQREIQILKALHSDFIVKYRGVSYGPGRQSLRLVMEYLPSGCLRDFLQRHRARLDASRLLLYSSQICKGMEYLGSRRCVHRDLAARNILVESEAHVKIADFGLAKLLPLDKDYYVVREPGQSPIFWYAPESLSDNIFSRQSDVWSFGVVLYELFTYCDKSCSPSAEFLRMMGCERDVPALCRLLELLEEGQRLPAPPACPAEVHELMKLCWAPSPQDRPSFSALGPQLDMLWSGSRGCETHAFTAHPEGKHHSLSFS

CN(C(=O)CN1CCOCC1)c1ccc2sc3c(-c4cccc5c(=O)cc(N6CC7CCC(C6)O7)oc45)cccc3c2c1 [NU5455]
inhibition at 1 µM: 6%

From article PMC6934184, “Selective DNA-PKcs inhibition extends the therapeutic index of localized radiotherapy and chemotherapy” (The Journal of Clinical Investigation, 2019)
